Source: PubChem BioAssay (NCI)
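Values below derive from 48-hour exposures of cells grown in 96-well plates, with endpoints linearly interpolated between the two concentrations bracketing the appropriate inhibition level. TGI: concentration producing complete growth inhibition.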

Assays:
Assay in all cases: growth of human tumour cells (NCI), 48 h
786-0 renal = system: 786-0 renal
A498 renal = system: A498 renal
A549 NSCLC = system: A549 NSCLC
ACHN renal = system: ACHN renal
CAKI-1 renal = system: CAKI-1 renal
CCRF-CEM leukemia = system: CCRF-CEM leukemia
COLO 205 colon = system: COLO 205 colon
DU-145 prostate = system: DU-145 prostate
EKVX NSCLC = system: EKVX NSCLC
HCC-2998 colon = system: HCC-2998 colon
HCT-116 colon = system: HCT-116 colon
HCT-15 colon = system: HCT-15 colon
HL-60(TB) leukemia = system: HL-60(TB) leukemia
HOP-62 NSCLC = system: HOP-62 NSCLC
HOP-92 NSCLC = system: HOP-92 NSCLC
HS 578T breast = system: HS 578T breast
HT29 colon = system: HT29 colon
IGROV1 ovarian = system: IGROV1 ovarian
K-562 leukemia = system: K-562 leukemia
KM12 colon = system: KM12 colon
LOX IMVI melanoma = system: LOX IMVI melanoma
M14 melanoma = system: M14 melanoma
MALME-3M melanoma = system: MALME-3M melanoma
MCF7 breast = system: MCF7 breast
MDA-MB-231 breast = system: MDA-MB-231 breast
MDA-MB-435 = system: MDA-MB-435
MDA-N = system: MDA-N
MOLT-4 leukemia = system: MOLT-4 leukemia
NCI-H226 lung = system: NCI-H226 lung
NCI-H23 lung = system: NCI-H23 lung
NCI-H460 lung = system: NCI-H460 lung
NCI-H522 lung = system: NCI-H522 lung
NCI/ADR-RES ovarian = system: NCI/ADR-RES ovarian
OVCAR-3 ovarian = system: OVCAR-3 ovarian
OVCAR-4 ovarian = system: OVCAR-4 ovarian
OVCAR-5 ovarian = system: OVCAR-5 ovarian
OVCAR-8 ovarian = system: OVCAR-8 ovarian
PC-3 prostate = system: PC-3 prostate
RPMI-8226 leukemia = system: RPMI-8226 leukemia
RXF 393 renal = system: RXF 393 renal
SF-268 CNS = system: SF-268 CNS
SF-295 CNS = system: SF-295 CNS
SF-539 CNS = system: SF-539 CNS
SK-MEL-2 melanoma = system: SK-MEL-2 melanoma
SK-MEL-28 melanoma = system: SK-MEL-28 melanoma
SK-MEL-5 melanoma = system: SK-MEL-5 melanoma
SK-OV-3 ovarian = system: SK-OV-3 ovarian
SN12C renal = system: SN12C renal
SNB-19 CNS = system: SNB-19 CNS
SNB-75 CNS = system: SNB-75 CNS
SR leukemia = system: SR leukemia
SW-620 colon = system: SW-620 colon
T-47D breast = system: T-47D breast
TK-10 renal = system: TK-10 renal
U251 CNS = system: U251 CNS
UACC-257 melanoma = system: UACC-257 melanoma
UACC-62 melanoma = system: UACC-62 melanoma
UO-31 renal = system: UO-31 renal
BT-549 breast = system: BT-549 breast

Structure (SMILES): C[N+]1(C)CN(c2ccccc2)C2(CCN(CCCC(=O)c3cccs3)CC2)C1=O
- TGI (786-0 renal): > 100 µM
- TGI (A498 renal): > 100 µM
- TGI (A549 NSCLC): > 100 µM
- TGI (ACHN renal): > 100 µM
- TGI (CAKI-1 renal): > 100 µM
- TGI (CCRF-CEM leukemia): > 100 µM
- TGI (COLO 205 colon): > 100 µM
- TGI (DU-145 prostate): > 100 µM
- TGI (EKVX NSCLC): > 100 µM
- TGI (HCC-2998 colon): > 100 µM
- TGI (HCT-116 colon): > 100 µM
- TGI (HCT-15 colon): > 100 µM
- TGI (HL-60(TB) leukemia): > 100 µM
- TGI (HOP-62 NSCLC): > 100 µM
- TGI (HOP-92 NSCLC): > 100 µM
- TGI (HS 578T breast): > 100 µM
- TGI (HT29 colon): > 100 µM
- TGI (IGROV1 ovarian): > 100 µM
- TGI (K-562 leukemia): > 100 µM
- TGI (KM12 colon): > 100 µM
- TGI (LOX IMVI melanoma): > 100 µM
- TGI (M14 melanoma): 51.9 µM
- TGI (MALME-3M melanoma): > 100 µM
- TGI (MCF7 breast): > 100 µM
- TGI (MDA-MB-231 breast): > 100 µM
- TGI (MDA-MB-435): > 100 µM
- TGI (MDA-N): > 100 µM
- TGI (MOLT-4 leukemia): > 100 µM
- TGI (NCI-H226 lung): > 100 µM
- TGI (NCI-H23 lung): > 100 µM
- TGI (NCI-H460 lung): > 100 µM
- TGI (NCI-H522 lung): > 100 µM
- TGI (NCI/ADR-RES ovarian): > 100 µM
- TGI (OVCAR-3 ovarian): > 100 µM
- TGI (OVCAR-4 ovarian): > 100 µM
- TGI (OVCAR-5 ovarian): > 100 µM
- TGI (OVCAR-8 ovarian): > 100 µM
- TGI (PC-3 prostate): > 100 µM
- TGI (RPMI-8226 leukemia): > 100 µM
- TGI (RXF 393 renal): > 100 µM
- TGI (SF-268 CNS): > 100 µM
- TGI (SF-295 CNS): > 100 µM
- TGI (SF-539 CNS): > 100 µM
- TGI (SK-MEL-2 melanoma): > 100 µM
- TGI (SK-MEL-28 melanoma): > 100 µM
- TGI (SK-MEL-5 melanoma): 77.1 µM
- TGI (SK-OV-3 ovarian): > 100 µM
- TGI (SN12C renal): > 100 µM
- TGI (SNB-19 CNS): > 100 µM
- TGI (SNB-75 CNS): > 100 µM
- TGI (SR leukemia): > 100 µM
- TGI (SW-620 colon): > 100 µM
- TGI (T-47D breast): > 100 µM
- TGI (TK-10 renal): > 100 µM
- TGI (U251 CNS): > 100 µM
- TGI (UACC-257 melanoma): > 100 µM
- TGI (UACC-62 melanoma): > 100 µM
- TGI (UO-31 renal): > 100 µM

Structure (SMILES): CC12ON=C(c3ccccc3)N1C=CN1C(c3ccccc3)=NOC12 (stereo not given)
- TGI (786-0 renal): > 100 µM
- TGI (A549 NSCLC): > 100 µM
- TGI (ACHN renal): > 100 µM
- TGI (BT-549 breast): > 100 µM
- TGI (CAKI-1 renal): > 100 µM
- TGI (COLO 205 colon): > 100 µM
- TGI (DU-145 prostate): > 100 µM
- TGI (EKVX NSCLC): > 100 µM
- TGI (HCC-2998 colon): > 100 µM
- TGI (HCT-116 colon): > 100 µM
- TGI (HCT-15 colon): > 100 µM
- TGI (HOP-62 NSCLC): > 100 µM
- TGI (HS 578T breast): > 100 µM
- TGI (IGROV1 ovarian): > 100 µM
- TGI (KM12 colon): > 100 µM
- TGI (LOX IMVI melanoma): > 100 µM
- TGI (M14 melanoma): > 100 µM
- TGI (MALME-3M melanoma): > 100 µM
- TGI (MCF7 breast): > 100 µM
- TGI (MDA-MB-231 breast): > 100 µM
- TGI (MDA-N): > 100 µM
- TGI (NCI-H226 lung): > 100 µM
- TGI (NCI-H23 lung): > 100 µM
- TGI (NCI-H460 lung): > 100 µM
- TGI (NCI-H522 lung): > 100 µM
- TGI (NCI/ADR-RES ovarian): > 100 µM
- TGI (OVCAR-3 ovarian): > 100 µM
- TGI (OVCAR-5 ovarian): > 100 µM
- TGI (OVCAR-8 ovarian): > 100 µM
- TGI (PC-3 prostate): > 100 µM
- TGI (RXF 393 renal): > 100 µM
- TGI (SF-268 CNS): > 100 µM
- TGI (SF-295 CNS): > 100 µM
- TGI (SF-539 CNS): > 100 µM
- TGI (SK-MEL-5 melanoma): > 100 µM
- TGI (SK-OV-3 ovarian): > 100 µM
- TGI (SNB-19 CNS): > 100 µM
- TGI (SNB-75 CNS): > 100 µM
- TGI (TK-10 renal): > 100 µM
- TGI (UACC-257 melanoma): > 100 µM
- TGI (UACC-62 melanoma): > 100 µM
- TGI (UO-31 renal): > 100 µM
